Patent US7141170B2, “Halogenated solvent remediation” (North Wind, Inc., priority 2004, dated 2006)

Key:
[1] = Surface tension of electron donor solutions (pendant drop); type: physicochemical; conditions: for change in surface tension: 0% ethyl lactate
Excerpt: Two fundamental properties used to screen the co-solvent or surfactant properties of a solution are surface tension and interfacial tension. Surface tension measures the force per unit length along the interface between a liquid and air due to its tension. When a co-solvent or surfactant is present in an aqueous liquid at increasing concentrations, the surface tension of that liquid decreases. Interfacial tension is similar to surface tension except that it measures the force per unit length along the interface between two liquid phases arising from the surface free energy. The higher the interfacial tension between two liquids, the less likely one is to dissolve into the other, and the more difficult it is for one to be transported within the other. Thus, perhaps the most significant property of co-solvents and surfactants in the context of chlorinated solvent remediation is that they decrease the interfacial tension between the aqueous phase (groundwater) and the organic nonaqueous phase so that the solubility (or mobility for order-of-magnitude decreases) of the nonaqueous phase is enhanced. The laboratory study performed to confirm the co-solvent properties of the high concentration electron donor solution measured the surface tension of electron donor solutions at various concentrations. Next, interfacial tensions between the same electron donor solutions and nonaqueous phase TCE were measured. Two types of electron donor solutions were used. […] Surface and interfacial tension measurements were made using the pendant drop method (M. J. Rosen, ed., Structure/Performance Relationships in Surfactants, American Chemical Society, Washington […]. Arundel, The Profile Area of Pendant Drops, 82 J. Phys. Chem. 898 (1978)) coupled with real-time video imaging (M. D. Herd et al., Interfacial Tensions of Microbial Surfactants Determined by Real-Time Video Imaging of Pendant Drops, Proceedings paper number SPE/DOE 24206 513-519, SPE/DOE Eighth Symposium on Enhanced Oil Recovery, Tulsa, Okla. (1992)).

[2] = Field evaluation of enhanced in situ bioremediation at Test Area North (sodium lactate injection)
Protocol: A 1-year field evaluation of enhanced in situ bioremediation was performed at Test Area North (“TAN”) of the Idaho National Engineering and Environmental Laboratory. […] The locations of a 5,000 μg/L TCE isopleth (14); 1,000 μg/L TCE isopleth (16); 100 μg/L TCE isopleth (18); and 5 μg/L TCE isopleth (20) are shown by solid lines. FIG. 2 illustrates a cross section of this site, showing the surface of the ground (22), an approximately 63-m (210-feet) fractured basalt unsaturation zone (24) (not drawn to scale), an approximately 60-m (200-feet) fractured basalt aquifer (26), and an impermeable clay interbed (28). […]
The initial electron donor addition strategy involved continuous injection of potable water at 37.85 liters/minute (10 gpm) into Well TSF-05. […] It was determined that the continuous injection of clean water at 37.85 liters/minute (10 gpm) overwhelmed the flux of contaminants from the secondary source. […] This was intended to prevent significant quantities of electron donor from collecting in the injection well and to help prevent biofouling. […]
Eleven monitoring wells (i.e., TAN-D2, TAN-9, TAN-10A, TAN-25, TAN-26, TAN-27, TAN-28, TAN-29, TAN-30A, TAN-31, and TAN-37) were sampled biweekly and analyzed for electron donors, biological activity indicators, competing inorganic electron acceptors and their reduced products, chloroethenes, ethene, pH, temperature, and specific conductivity.

[3] = Interfacial tension between electron donor solutions and nonaqueous phase TCE (pendant drop); type: physicochemical; conditions: 0% ethyl lactate
Excerpt: Based on the field results presented in Example 1, laboratory studies were preformed to confirm that the enhanced bioavailability of TCE observed in the field was due to co-solvent or surfactant behavior resulting from the use of high concentrations of sodium lactate. Two fundamental properties used to screen the co-solvent or surfactant properties of a solution are surface tension and interfacial tension. Surface tension measures the force per unit length along the interface between a liquid and air due to its tension. When a co-solvent or surfactant is present in an aqueous liquid at increasing concentrations, the surface tension of that liquid decreases. Interfacial tension is similar to surface tension except that it measures the force per unit length along the interface between two liquid phases arising from the surface free energy. The higher the interfacial tension between two liquids, the less likely one is to dissolve into the other, and the more difficult it is for one to be transported within the other. […]
The laboratory study performed to confirm the co-solvent properties of the high concentration electron donor solution measured the surface tension of electron donor solutions at various concentrations. Next, interfacial tensions between the same electron donor solutions and nonaqueous phase TCE were measured. […]

[4] = test system: TCE-dechlorinating culture derived from TAN-25 groundwater; experiment: Microcosm dechlorination and electron donor utilization study; type: cell-based
Protocol: Dechlorination studies were carried out to determine if whey powder solutions facilitate complete degradation of target contaminants at reasonable rates. Microcosms were constructed in triplicate sets. These microcosms were amended periodically with whey powder and TCE and analyzed monthly for TCE, its reductive degradation products, electron donor (as both COD and volatile fatty acids (VFAs)), redox, and pH.
An existing laboratory, sodium lactate-fed culture, derived from TAN-25 groundwater undergoing complete anaerobic reductive dechlorination (ARD) of TCE to ethene, was used to inoculate the cultures. Fresh TAN groundwater from the source area was also used to ensure that microbial populations that have been lost as a result of laboratory conditions were present for the evaluation. Serum vials (160 mL) were used as microcosms to grow the cultures. Prior to inoculation, the microcosms, along with all other culture-contact supplies, were autoclaved at 121° C. for 20 minutes and cooled to room temperature. Inoculation of the microcosms was done in a glove box containing nitrogen (95%), carbon dioxide (2.5%), and hydrogen (2.5%). Each microcosm was loaded with the inoculum, which comprised cells from the TCE-dechlorinating culture (1 L), cells from TAN-25 groundwater (1 L), and TAN-37 groundwater (2.5 L) as the media.
The culture cells were used to ensure a robust dechlorinating community was present, and cells were collected from TAN-25 groundwater to ensure the laboratory community was representative of the community at TAN. […] The cell pellets from the dechlorinating culture and TAN-25 groundwater were separated from the supernatant because both contained electron donors, including propionate, acetate, and lactate. TAN-37 groundwater was selected as the medium because it was anaerobic groundwater that contained little or no carbon (40 mg/L as COD with <2.5 ppm acetate and propionate) that might interfere with the evaluation of electron donor utilization. The inoculum mixture was then spiked with TCE (10 ppm), aliquoted (100 mL) into the microcosms, and each respective electron donor was added (˜200 ppm for all electron donors except whey powder [˜400 ppm]). The microcosms were then sealed with butyl-rubber septa and crimped. The headspace of each microcosm was flushed for 10 minutes with 100% nitrogen, and then an initial positive pressure of 5 psig was induced into each one. […] The test microcosms were prepared in triplicate and negative control microcosms were amended with whey powder and LactOil™/propionate. The study included a total of 20 microcosms.
Three months after inoculation, additional electron donor was added to all of the microcosms (200 to 300 mg/L as COD). […] At this point, approximately 50 mL of TAN-37 groundwater was also amended to all of the biotic microcosms to replace the volume lost because of sampling. This was done by placing all of the biotic microcosms into the anaerobic chamber containing nitrogen (95%), carbon dioxide (2.5%), and hydrogen (2.5%); removing the septum; adding TAN-37 groundwater and electron donor; and replacing septum and spiking each microcosm with a TCE stock solution. TCE was amended to all of the microcosms 4 and 6 months after inoculation.
Throughout these studies, the microcosms were monitored monthly for TCE, cis-DCE, trans-DCE, VC, ethene, ethane, methane, lactate, acetate, propionate, butyrate, pH, and Eh. […] Analytical samples (6 mL) were removed using a glass syringe (Hamilton Co., Reno, Nev.) and a 22-gauge sterile needle.

In the case of `CCOC(=O)C(C)O` (stereo not shown) [ethyl lactate], the “effect on the solution's surface tension” value ([1]; addition of 1% and 10% ethyl lactate to the different sodium lactate solutions) was “pronounced effect”.

With `CC(O)C(=O)[O-].[Na+]` (stereo not shown) [sodium lactate] the “change in surface tension” value ([1]; sodium lactate concentration increased to 30 and 60%) was “dramatic decrease”, the “change in surface tension” value ([1]; sodium lactate concentrations from 0.01 to 7%) was “almost no change” and the “reductive dechlorination of TCE to ethene” value ([2]; all wells receiving significant lactate concentrations) was “Enhanced reductive dechlorination of TCE to ethene was observed”. For the same compound, the “TCE concentrations deep in the aquifer soon after addition began” value ([2]; well TAN-26) was “dramatic increase”, the “interfacial tension as % of the value at a sodium lactate concentration of 0.1%” value ([3]; sodium lactate 30%) was 47% and the “decrease of interfacial tension” value ([3]; sodium lactate increased from 0.1 to 3%) was “about 26%”. For the same compound, the “accumulated cis-DCE, average concentration” value ([4]; 1 month after inoculation) was 75 ppb, the “methane accumulated, average” value ([4]; between 6 and 7 months) was 21 µM and the methane concentration generated ([4]; in 3 months) was “approximately 50 μM”. For the same compound, the TCE remaining ([4]; one month after TCE re-addition, only ethene present) was “all of the TCE was gone”, the TCE remaining ([4]; three months after inoculation, only ethene detected) was “all of the TCE was gone” and the “ethene production as share of amended TCE” value ([4]; two months after inoculation) was 10%.
